{"source": "ChEMBL document CHEMBL5375956", "about": "“Discovery of Pyrazolo[1,5-a]pyrimidine Derivative as a Novel and Selective ALKBH5 Inhibitor for the Treatment of AML” (J Med Chem, 2023)", "key": {"MOLM-13 [1]": {"system": "MOLM-13", "assay": "Antiproliferative activity against human MOLM-13 cells assessed as inhibition of cell proliferation incubated for 72 hrs by Cell Titer Luminescence assay", "format": "functional, cell-based", "details": "MOLM-13, 72 h"}, "MV4-11 [2]": {"system": "MV4-11", "assay": "Downregulation of TACC3 mRNA level in human MV4-11 cells assessed as half life of expression at 20 umol/L incubated for 24 hrs by qRT-PCR analysis (reference value: 2.63 hrs)", "format": "functional, cell-based", "details": "dose 20.0 µmol/L"}, "[3]": {"assay": "Half life in Sprague-Dawley rat at 10 mg/kg, po measured for 1 to 1440 mins by LC-MS/MS analysis", "format": "ADME, organism-based", "details": "in vivo, time 1-1440 min"}, "[4]": {"assay": "Toxicity in nude mouse xenografted with human MV4-11 cells assessed as kidney damage at 10 to 40 mg/kg, ip treated every day for 14 days by H and E staining based analysis", "format": "organism-based", "details": "in vivo, 336 h, dose 10-40 mg/kg, time 14 day"}, "[5]": {"assay": "Metabolic stability in rat liver microsomes assessed as half life measured upto 240 mins by LC-MS/MS analysis", "format": "ADME, Microsome"}, "RNA demethylase ALKBH5 [6]": {"biological_target": "T1, RNA demethylase ALKBH5 (Homo sapiens, UniProt Q6P6C2)", "assay": "Binding affinity to NT-647-NHS fluorescent dye-labeled wild-type ALKBH5 (66 to 292 residues)(unknown origin) expressed in Escherichia coli BL21(DE3) using m6A-ssDNA as substrate assessed as dissociation constant incubated for 15 mins by MST assay"}, "RNA demethylase ALKBH5 [7]": {"biological_target": "T1, RNA demethylase ALKBH5", "assay": "Inhibition of ALKBH5 in HEK293 cells assessed as increase in m6A RNA level at 10 to 40 uM by colorimetric assay", "format": "cell-based", "details": "dose 10-40 µM"}, "[8]": {"assay": "Cmax in Sprague-Dawley rat at 10 mg/kg, po measured for 1 to 1440 mins by LC-MS/MS analysis", "format": "ADME, organism-based", "details": "in vivo"}, "MV4-11 [9]": {"system": "MV4-11", "assay": "Antiproliferative activity against human MV4-11 cells assessed as inhibition of cell proliferation incubated for 72 hrs by Cell Titer Luminescence assay", "format": "functional, cell-based", "details": "MV4-11, 72 h"}, "RNA demethylase ALKBH5 [10]": {"biological_target": "RNA demethylase ALKBH5 (Homo sapiens, UniProt Q6P6C2, K132A)", "sequence (Q6P6C2 2-394 K132A limits assumed)": "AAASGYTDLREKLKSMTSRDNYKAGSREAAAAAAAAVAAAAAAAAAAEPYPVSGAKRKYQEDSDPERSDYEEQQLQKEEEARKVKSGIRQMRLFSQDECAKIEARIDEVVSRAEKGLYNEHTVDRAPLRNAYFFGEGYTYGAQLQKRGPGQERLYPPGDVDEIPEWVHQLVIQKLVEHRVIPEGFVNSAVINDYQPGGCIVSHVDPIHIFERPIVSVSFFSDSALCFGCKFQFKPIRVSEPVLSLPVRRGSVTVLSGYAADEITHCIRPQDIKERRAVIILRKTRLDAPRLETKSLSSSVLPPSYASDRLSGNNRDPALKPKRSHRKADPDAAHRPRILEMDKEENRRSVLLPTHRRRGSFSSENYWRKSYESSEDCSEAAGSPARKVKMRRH", "assay": "Binding affinity to NT-647-NHS fluorescent dye-labeled ALKBH5 K132A mutant (unknown origin) expressed in Escherichia coli BL21(DE3) using m6A-ssDNA as substrate assessed as dissociation constant incubated for 15 mins by MST assay"}, "RNA demethylase ALKBH5 [11]": {"biological_target": "T1, RNA demethylase ALKBH5", "assay": "Competitive binding affinity to ALKBH5 (66 to 292 residues)(unknown origin) expressed in Escherichia coli BL21(DE3) using 5'-ATTGTCA(m6A)CAGCAGA-FAM-3' as substrate assessed as dissociation constant incubated for 30 mins in presence of 2-OG by FP assay"}, "MV4-11 [12]": {"system": "MV4-11", "assay": "Induction of apoptosis in human MV4-11 cells assessed as viable cells at 10 uM incubated for 48 hrs by Annexin V-FITC/PI staining based flow cytometry (reference value: 89.8 %)", "format": "functional", "details": "read-out: Activity"}, "RNA demethylase ALKBH5 [13]": {"biological_target": "T1, RNA demethylase ALKBH5", "assay": "Inhibition of ALKBH5 in human MOLM-13 cells assessed as increase in m6A RNA level by colorimetric assay", "format": "cell-based", "details": "dose 10-20 µM"}, "MOLM-13 [14]": {"system": "MOLM-13", "assay": "Downregulation of TACC3 mRNA level in human MOLM-13 cells assessed as half life of expression at 20 umol/L incubated for 24 hrs by qRT-PCR analysis (reference value: 2.87 hrs)", "format": "functional, cell-based", "details": "dose 20.0 µmol/L"}, "MV4-11 [15]": {"system": "MV4-11", "assay": "Antitumor activity against human MV4-11 cells xenografted in nude mouse assessed as tumor growth inhibition at 20 mg/kg, ip treated every day for 14 days relative to control", "format": "functional", "details": "MV4-11, 336 h, time 14 day, read-out: TGI"}, "HUVEC": {"system": "HUVEC", "assay": "Antiproliferative activity against HUVEC cells assessed as inhibition of cell proliferation incubated for 72 hrs by Cell Titer Luminescence assay", "format": "functional, cell-based", "details": "Homo sapiens"}, "HEK293": {"system": "HEK293", "assay": "Effect on TACC3 level in HEK293 cells upto 10 uM incubated for 48 hrs by Western blot analysis", "format": "functional, cell-based", "details": "Homo sapiens"}, "[16]": {"assay": "Half life in Sprague-Dawley rat at 2 mg/kg, iv measured for 1 to 1440 mins by LC-MS/MS analysis", "format": "ADME, organism-based", "details": "in vivo, time 1-1440 min"}, "RNA demethylase ALKBH5 [17]": {"biological_target": "RNA demethylase ALKBH5 (Homo sapiens, UniProt Q6P6C2, R130A)", "sequence (Q6P6C2 2-394 R130A limits assumed)": "as the sequence (Q6P6C2 2-394 K132A limits assumed) above, with R129A, A131K counted along it", "assay": "Binding affinity to NT-647-NHS fluorescent dye-labeled ALKBH5 R130A mutant (unknown origin) expressed in Escherichia coli BL21(DE3) using m6A-ssDNA as substrate assessed as dissociation constant incubated for 15 mins by MST assay"}, "[18]": {"biological_target": "T2, Alpha-ketoglutarate-dependent dioxygenase alkB homolog 3 (Homo sapiens) (UniProt Q96Q83)", "T2 sequence (whole entry)": "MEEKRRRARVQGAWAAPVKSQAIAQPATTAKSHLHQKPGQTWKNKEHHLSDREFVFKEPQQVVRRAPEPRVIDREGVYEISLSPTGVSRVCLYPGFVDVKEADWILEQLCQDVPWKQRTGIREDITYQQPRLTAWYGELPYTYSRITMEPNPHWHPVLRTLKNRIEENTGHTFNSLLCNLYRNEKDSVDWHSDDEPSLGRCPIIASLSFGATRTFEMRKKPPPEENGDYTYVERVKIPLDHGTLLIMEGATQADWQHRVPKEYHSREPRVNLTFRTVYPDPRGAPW", "assay": "Inhibition of ALKBH3 (62 to 286 residues)(unknown origin) expressed in Escherichia coli BL21(DE3) using 5'-TAGACATTGCCATTCTCGATAGG(m6A)-TCCGGTCAAACCTAGACGAATTCCA-3' as substrate at 100 uM incubated for 2 hrs by restriction endonuclease digestion assay"}, "RNA demethylase ALKBH5 [19]": {"biological_target": "T1, RNA demethylase ALKBH5", "assay": "Binding affinity to ALKBH5 in human MOLM-13 cells assessed as thermal shift heating at 200 uM incubated for 30 mins followed by heating at 45 to 67 degreeC measured for 3 mins by CETSA assay", "format": "cell-based"}, "MOLM-13 [20]": {"system": "MOLM-13", "assay": "Downregulation of TACC3 level in human MOLM-13 cells upto 10 uM incubated for 48 hrs by Western blot analysis", "format": "functional, cell-based"}, "[21]": {"assay": "Apparent oral clearance in Sprague-Dawley rat at 10 mg/kg, po measured for 1 to 1440 mins by LC-MS/MS analysis", "format": "ADME, organism-based", "details": "in vivo, time 1-1440 min"}, "[22]": {"assay": "MRT in Sprague-Dawley rat at 2 mg/kg, iv measured for 1 to 1440 mins by LC-MS/MS analysis", "format": "ADME, organism-based", "details": "in vivo, time 1-1440 min"}, "[23]": {"assay": "AUC (0 to infinity) in Sprague-Dawley rat at 2 mg/kg, iv measured for 1 to 1440 mins by LC-MS/MS analysis", "format": "ADME, organism-based", "details": "in vivo"}, "MOLM-13 [24]": {"system": "MOLM-13", "assay": "Downregulation of c-Myc mRNA level in human MOLM-13 cells at 5 to 10 uM incubated for 48 hrs by qRT-PCR analysis", "format": "functional, cell-based", "details": "dose 5-10 µM"}, "MV4-11 [25]": {"system": "MV4-11", "assay": "Antitumor activity against human MV4-11 cells xenografted in nude mouse assessed as tumor growth inhibition at 40 mg/kg, ip treated every day for 14 days relative to control", "format": "functional", "details": "MV4-11, 336 h, time 14 day, read-out: TGI"}, "[26]": {"assay": "Apparent volume of distribution during terminal phase in Sprague-Dawley rat at 10 mg/kg, po measured for 1 to 1440 mins by LC-MS/MS analysis", "format": "ADME, organism-based", "details": "in vivo, time 1-1440 min, read-out: Vz/F"}, "[27]": {"assay": "Toxicity in nude mouse xenografted with human MV4-11 cells assessed as heart damage at 10 to 40 mg/kg, ip treated every day for 14 days by H and E staining based analysis", "format": "organism-based", "details": "in vivo, 336 h, dose 10-40 mg/kg, time 14 day"}}, "note": "The source made the active and inactive calls. The calls are words filed in the database; no cut-off is given here."}
{"smiles": "O=C(OCc1ccc(C(F)(F)F)cc1)c1ccc(-c2cc3ncc(C(=O)c4c(O)ccc([N+](=O)[O-])c4O)cn3n2)cc1", "values": [{"measurement": "IC50", "setting": "MOLM-13 [1]", "value": 0.45, "unit": "µM"}, {"measurement": "T1/2", "setting": "MV4-11 [2]", "value": 1.96, "unit": "h"}, {"measurement": "half-life", "setting": "[3]", "value": 2.47, "unit": "h"}, {"measurement": "Activity", "setting": "[4]", "value": "Non-Toxic"}, {"measurement": "half-life", "setting": "[5]", "value": 0.23, "unit": "h"}, {"measurement": "Kd", "setting": "RNA demethylase ALKBH5 [6]", "value": 11.2, "unit": "µM"}, {"measurement": "inhibition", "setting": "RNA demethylase ALKBH5 [7]", "value": "Active"}, {"measurement": "Cmax", "setting": "[8]", "value": 2340, "unit": "ng/mL"}, {"measurement": "IC50", "setting": "MV4-11 [9]", "value": 1.2, "unit": "µM"}, {"measurement": "Kd", "setting": "RNA demethylase ALKBH5 [10]", "value": 53, "unit": "µM"}, {"measurement": "Kd", "setting": "RNA demethylase ALKBH5 [11]", "value": "~0.0657", "unit": "µM"}, {"measurement": "viability at 10 µM", "setting": "MV4-11 [12]", "value": 39.9, "unit": "%"}, {"measurement": "inhibition", "setting": "RNA demethylase ALKBH5 [13]", "value": "Dose-Dependent Effect"}, {"measurement": "T1/2", "setting": "MOLM-13 [14]", "value": 2.06, "unit": "h"}, {"measurement": "inhibition in vivo at 20 mg/kg", "setting": "MV4-11 [15]", "value": 68.9, "unit": "%"}, {"measurement": "IC50", "setting": "HUVEC", "value": 165, "unit": "µM"}, {"measurement": "Activity", "setting": "HEK293", "value": "inactive"}, {"measurement": "half-life", "setting": "[16]", "value": 0.612, "unit": "h"}, {"measurement": "Kd", "setting": "RNA demethylase ALKBH5 [17]", "value": 373, "unit": "µM"}, {"measurement": "inhibition", "setting": "[18]", "value": "inactive"}, {"measurement": "Activity", "setting": "RNA demethylase ALKBH5 [19]", "value": "Active"}, {"measurement": "Activity", "setting": "MOLM-13 [20]", "value": "Active"}, {"measurement": "CL/F", "setting": "[21]", "value": 28.8, "unit": "mL/min/kg"}, {"measurement": "MRT", "setting": "[22]", "value": 1.3, "unit": "h"}, {"measurement": "AUC(0-inf)", "setting": "[23]", "value": 6740, "unit": "ng·h/mL"}, {"measurement": "Activity", "setting": "MOLM-13 [24]", "value": "Active"}, {"measurement": "inhibition in vivo at 40 mg/kg", "setting": "MV4-11 [25]", "value": 70.5, "unit": "%"}, {"measurement": "Vd/F", "setting": "[26]", "value": 6.18, "unit": "L/kg"}, {"measurement": "Activity", "setting": "[27]", "value": "Non-Toxic"}]}
